From patent US20060117399A1, “Animal model for human lymphomas” (Medical University, priority 2004, published 2006)

Assays:
B lymphoma cells = test: In vitro lymphocyte survival and apoptosis assays (trypan blue dye exclusion); assay type: cell-based, mouse; settings: B lymphoma cells from p80HT transgenic mice; doxorubicin 0.5 μg/ml
Procedure: (§1) C-E: In vitro survival and apoptosis assays of splenic B cells and B lymphoma cells. Cells were either untreated (D) or treated with 0.5 μg/ml of doxorubicin (C) or with 20 μg/ml of LPS (E). Viability was determined by trypan blue dye exclusion assays. Data in (A-E) represent means±SD of cells from 5 mice of each genotype or from 58 lymphomas samples.
(§2) Purified splenic B cells and B lymphoma cells (10^5/well, 96-well plate) were cultured in DMEM supplemented with 10% FBS, 250 μM L-asparagine, and 50 μM 2-mercaptoethanol. Cells were either untreated or treated with recombinant mouse TNF-α (20 ng/ml, Calbiochem), Fas ligand (100 ng/ml, PeoproTech), LPS (20 μg/ml, Sigma), or doxorubicin (0.5 μg/ml, Ben Venue Laboratories), and viable cells were determined daily by trypan blue dye exclusion assays.

splenic B cells = test: as above; assay type: cell-based, mouse; settings: for sensitivity of splenic B cells to death stimuli: both wild-type and p80HT splenic B cells, TNF-α 20 ng/ml, Fas ligand 100 ng/ml, doxorubicin 0.5 μg/ml
Procedure: as §1, §2

Molecule	apoptosis induced by doxorubicin (B lymphoma cells)	sensitivity of splenic B cells to death stimuli (splenic B cells)	apoptosis induced by the activation signal (LPS) (splenic B cells; p80HT splenic B cells, LPS 20 μg/ml)	response of splenic B cells to LPS (splenic B cells; splenic B cells generally, LPS 20 μg/ml, after about 3 days of proliferation)
COc1cccc2c1C(=O)c1c(O)c3c(c(O)c1C2=O)C[C@@](O)(C(=O)CO)C[C@@H]3O[C@H]1C[C@H](N)[C@H](O)[C@H](C)O1 [doxorubicin]	highly resistant	equally sensitive		
lipopolysaccharide [LPS]			highly resistant	extensive apoptosis
TNF-a		highly resistant		
Fas ligand: death ligand, 100 ng/ml, PeoproTech (protein, UniProt P48023 130-281, looked up) Tumor necrosis factor ligand …: QIGHPSPPPEKKELRKVAHLTGKSNSRSMPLEWEDTYGIVLLSGVKYKKGGLVINETGLYFVYSKVYFRGQSCNNLPLSHKVYMRNSKYPQDLVMMEGKMMSYCTTGQMWARSSYLGAVFNLTSADHLYVNVSELSLVNFEESQTFFGLYKL		highly resistant		
